The numbers were not newly measured in PMC4474874, “Effect of JAK Inhibitors on Release of CXCL9, CXCL10 and CXCL11 from Human Airway Epithelial Cells” (PLoS ONE, 2015), which cites them from elsewhere.

Read-outs that look alike come from different tables or passages of the source.

The test system of one series is MAPKAP-K2. The arrangement: method as in PMID 18094329. To be noted: inactive or IC50 >30μM; read-out: IC50 against MAPKAP-K2; cited from earlier work.
In another series the test system is IKKi. Set-up: method as in PMID 18094329. To be noted: inactive or IC50 >30μM; read-out: IC50 against IKKi; cited from earlier work.
For a further series, the system named is TaoK3. The arrangement: method as in PMID 18094329. To be noted: inactive or IC50 >30μM; read-out: IC50 against TaoK3; cited from earlier work.
In another series the test system is JAK2. Set-up: method as in Coe et al., 25. To be noted: ref Coe et al., 25, cited from earlier work.
In series [1] the test system is human T lymphocytes (JAK1/3). Set-up: method as in Coe et al., 25. The settings on record: ref Coe et al., 25; read-out: IC50 IL-2-induced P-STAT5 human T lymphocytes (JAK1/3); cited from earlier work.
The test system of a further series is JAK3. The arrangement: method as in Coe et al., 25. To be noted: ref Coe et al., 25, cited from earlier work.
The next series has as its target Protein kinase C β2. The settings on record: read-out: IC50 Protein kinase C β2 Km; ATP at the Km; ref Coe et al., 25; cited from earlier work.

`C[C@@H]1CCN(C(=O)N2CCCC2)C[C@@H]1N(C)c1ncnc2[nH]ccc12` [PF956980]: the IC50 with MAPKAP-K2, in the series with IKKi and in the series on TaoK3 was greater than 30000 nM in each case.

Consider `CCc1cc(O)ccc1-c1ccc2c(-c3nc4ccccc4[nH]3)n[nH]c2c1` [PF1367550, 4-(3-(1H-benzo[d]imidazol-2-yl)-1H-indazol-6-yl)-3-ethylphenol], for which the IC50 with JAK2 (1mM ATP, read-out: IC50 JAK2 1 mM) is 1.3 nM; in the series with JAK2 (ATP at the Km, read-out: IC50 JAK2 Km), 1 nM; in series [1] it was 11 nM; in the series on JAK3 (1mM ATP, read-out: IC50 JAK3 1 mM), 14 nM; with JAK3 (ATP at the Km, read-out: IC50 JAK3 Km), 1 nM; on Protein kinase C β2, 665 nM.
